Experimental data from article PMC10707982, “Solubility and Thermodynamics Data of Cabozantinib Malate in Various Aqueous Solutions of Dimethyl Sulfoxide at Different Temperatures” (Molecules, 2023).

Key:
[1] = Apparent thermodynamic analysis of CBZM dissolution (van't Hoff and Gibbs equations) and enthalpy–entropy compensation; type: physicochemical
Method: All of the CBZM’s apparent thermodynamic properties were determined at Thm. The reported equation was used to determine the Thm. Then, 308 K was calculated as the Thm for CBZM. Several thermodynamic parameters were obtained via an apparent thermodynamic analysis. These parameters were computed using the van’t Hoff and Gibbs equations. Using Equation (12) and Thm = 308 K, the ΔsolH^0 data for CBZM in cosolvent mixtures and pure solvents were calculated:(12) ∂ln xe/∂1/T−1/ThmP=−ΔsolH^0/R
The ΔsolH^0 for CBZM was obtained by the plotted van’t Hoff curves between ln xe of CBZM and 1/T−1/Thm .
Furthermore, at Thm = 308 K, the ΔsolG^0 for CBZM in cosolvent combinations and pure solvents was derived utilizing the Krug et al. approach by Equation (13):(13) ΔsolG^0=−RThm×intercept where the intercept values for CBZM in cosolvent combinations and pure solvents were calculated using the van’t Hoff plots depicted in Figure 5.
By Equation (14), the ΔsolS^0 for CBZM in cosolvent mixtures and neat solvents was derived:(14) ΔsolS^0=ΔsolH^0−ΔsolG^0/Thm
An enthalpy–entropy compensation analyses was performed, as previously described, to assess the solvation behavior of CBZM in cosolvent mixtures and neat solvents. Weighted curves of ΔsolH° vs. ΔsolG° were constructed at Thm = 308 K for this experiment.

[2] = Activity coefficients (γi = xidl/xe) of CBZM; type: physicochemical
Excerpt: The data for Tfus, ΔHfus, and ΔCp for CBZM were collected from Ref. [20], and they are 462.72 K, 56.93 kJ mol^−1, and 123.03 J mol^−1 K^−1, respectively. Now, Equation (2) was used to determine the xidl values for CBZM. The γi values for CBZM in all cosolvent combinations and pure solvents were obtained using Equation (3):(3) γi=xidl/xe

[3] = set-up: method as in earlier work; conditions: all aqueous solutions, including H2O; cited from earlier work
[4] = set-up: method as in doi:10.1016/j.molliq.2020.115146; conditions: cited from earlier work
[5] = DMSO mass fraction m = 0.0, Thm = 308 K
[6] = DMSO mass fraction m = 0.1, Thm = 308 K
[7] = DMSO mass fraction m = 0.2, Thm = 308 K
[8] = DMSO mass fraction m = 0.3, Thm = 308 K
[9] = DMSO mass fraction m = 0.4, Thm = 308 K
[10] = DMSO mass fraction m = 0.5, Thm = 308 K
[11] = DMSO mass fraction m = 0.6, Thm = 308 K
[12] = DMSO mass fraction m = 0.7, Thm = 308 K
[13] = DMSO mass fraction m = 0.8, Thm = 308 K
[14] = DMSO mass fraction m = 0.9, Thm = 308 K
[15] = DMSO mass fraction m = 1.0, Thm = 308 K

- Apparent standard Gibbs energy ΔsolG^0 [1, 5]: 37.36 kJ/mol
- Apparent standard enthalpy ΔsolH^0 [1, 5]: 52.71 kJ/mol
- Apparent standard entropy ΔsolS^0 [1, 5]: 49.82 J mol^−1 K^−1
- Apparent standard Gibbs energy ΔsolG^0 [1, 6]: 34.41 kJ/mol
- Apparent standard enthalpy ΔsolH^0 [1, 6]: 48.03 kJ/mol
- Apparent standard entropy ΔsolS^0 [1, 6]: 44.21 J mol^−1 K^−1
- Apparent standard Gibbs energy ΔsolG^0 [1, 7]: 31.52 kJ/mol
- Apparent standard enthalpy ΔsolH^0 [1, 7]: 43.82 kJ/mol
- Apparent standard entropy ΔsolS^0 [1, 7]: 39.92 J mol^−1 K^−1
- Apparent standard Gibbs energy ΔsolG^0 [1, 8]: 28.62 kJ/mol
- Apparent standard enthalpy ΔsolH^0 [1, 8]: 40.57 kJ/mol
- Apparent standard entropy ΔsolS^0 [1, 8]: 38.80 J mol^−1 K^−1
- Apparent standard Gibbs energy ΔsolG^0 [1, 9]: 25.74 kJ/mol
- Apparent standard enthalpy ΔsolH^0 [1, 9]: 35.81 kJ/mol
- Apparent standard entropy ΔsolS^0 [1, 9]: 32.71 J mol^−1 K^−1
- Apparent standard Gibbs energy ΔsolG^0 [1, 10]: 22.81 kJ/mol
- Apparent standard enthalpy ΔsolH^0 [1, 10]: 32.78 kJ/mol
- Apparent standard entropy ΔsolS^0 [1, 10]: 32.35 J mol^−1 K^−1
- Apparent standard Gibbs energy ΔsolG^0 [1, 11]: 19.95 kJ/mol
- Apparent standard enthalpy ΔsolH^0 [1, 11]: 28.02 kJ/mol
- Apparent standard entropy ΔsolS^0 [1, 11]: 26.18 J mol^−1 K^−1
- Apparent standard Gibbs energy ΔsolG^0 [1, 12]: 17.03 kJ/mol
- Apparent standard enthalpy ΔsolH^0 [1, 12]: 24.18 kJ/mol
- Apparent standard entropy ΔsolS^0 [1, 12]: 23.21 J mol^−1 K^−1
- Apparent standard Gibbs energy ΔsolG^0 [1, 13]: 14.15 kJ/mol
- Apparent standard enthalpy ΔsolH^0 [1, 13]: 19.48 kJ/mol
- Apparent standard entropy ΔsolS^0 [1, 13]: 17.30 J mol^−1 K^−1
- Apparent standard Gibbs energy ΔsolG^0 [1, 14]: 11.19 kJ/mol
- Apparent standard entropy ΔsolS^0 [1, 14]: 9.05 J mol^−1 K^−1
- Apparent standard Gibbs energy ΔsolG^0 [1, 15]: 8.38 kJ/mol
- Apparent standard enthalpy ΔsolH^0 [1, 15]: 11.43 kJ/mol
- Apparent standard entropy ΔsolS^0 [1, 15]: 9.91 J mol^−1 K^−1
- Solvation-driven process (enthalpy–entropy compensation) ([1]; all cosolvent combinations and pure solvents, Thm = 308 K): enthalpy-driven
- Nature of dissolution ([1]; all cosolvent combinations, including neat solvents): endothermic and entropy-driven
- Activity coefficient (γi) ([2]; DMSO mass fraction m = 0.0, T = 298.2 K): 6703
- Activity coefficient (γi) ([2]; DMSO mass fraction m = 0.0, T = 303.2 K): 5689
- Activity coefficient (γi) ([2]; DMSO mass fraction m = 0.0, T = 308.2 K): 5044
- Activity coefficient (γi) ([2]; DMSO mass fraction m = 0.0, T = 313.2 K): 4739
- Activity coefficient (γi) ([2]; DMSO mass fraction m = 0.0, T = 318.2 K): 4597
- Activity coefficient (γi) ([2]; DMSO mass fraction m = 0.1, T = 298.2 K): 2011
- Activity coefficient (γi) ([2]; DMSO mass fraction m = 0.1, T = 303.2 K): 1712
- Activity coefficient (γi) ([2]; DMSO mass fraction m = 0.1, T = 308.2 K): 1608
- Activity coefficient (γi) ([2]; DMSO mass fraction m = 0.1, T = 313.2 K): 1542
- Activity coefficient (γi) ([2]; DMSO mass fraction m = 0.1, T = 318.2 K): 1538
- Activity coefficient (γi) ([2]; DMSO mass fraction m = 0.2, T = 298.2 K): 605.5
- Activity coefficient (γi) ([2]; DMSO mass fraction m = 0.2, T = 303.2 K): 550.8
- Activity coefficient (γi) ([2]; DMSO mass fraction m = 0.2, T = 308.2 K): 521.3
- Activity coefficient (γi) ([2]; DMSO mass fraction m = 0.2, T = 313.2 K): 517.5
- Activity coefficient (γi) ([2]; DMSO mass fraction m = 0.2, T = 318.2 K): 518.0
- Activity coefficient (γi) ([2]; DMSO mass fraction m = 0.3, T = 298.2 K): 187.7
- Activity coefficient (γi) ([2]; DMSO mass fraction m = 0.3, T = 303.2 K): 173.5
- Activity coefficient (γi) ([2]; DMSO mass fraction m = 0.3, T = 308.2 K): 167.9
- Activity coefficient (γi) ([2]; DMSO mass fraction m = 0.3, T = 313.2 K): 169.7
- Activity coefficient (γi) ([2]; DMSO mass fraction m = 0.3, T = 318.2 K): 174.4
- Activity coefficient (γi) ([2]; DMSO mass fraction m = 0.4, T = 298.2 K): 56.40
- Activity coefficient (γi) ([2]; DMSO mass fraction m = 0.4, T = 303.2 K): 55.14
- Activity coefficient (γi) ([2]; DMSO mass fraction m = 0.4, T = 308.2 K): 55.29
- Activity coefficient (γi) ([2]; DMSO mass fraction m = 0.4, T = 313.2 K): 56.55
- Activity coefficient (γi) ([2]; DMSO mass fraction m = 0.4, T = 318.2 K): 59.49
- Activity coefficient (γi) ([2]; DMSO mass fraction m = 0.5, T = 298.2 K): 17.42
- Activity coefficient (γi) ([2]; DMSO mass fraction m = 0.5, T = 303.2 K): 17.07
- Activity coefficient (γi) ([2]; DMSO mass fraction m = 0.5, T = 308.2 K): 17.69
- Activity coefficient (γi) ([2]; DMSO mass fraction m = 0.5, T = 313.2 K): 18.40
- Activity coefficient (γi) ([2]; DMSO mass fraction m = 0.5, T = 318.2 K): 19.80
- Activity coefficient (γi) ([2]; DMSO mass fraction m = 0.6, T = 298.2 K): 5.281
- Activity coefficient (γi) ([2]; DMSO mass fraction m = 0.6, T = 303.2 K): 5.524
- Activity coefficient (γi) ([2]; DMSO mass fraction m = 0.6, T = 308.2 K): 5.800
- Activity coefficient (γi) ([2]; DMSO mass fraction m = 0.6, T = 313.2 K): 6.266
- Activity coefficient (γi) ([2]; DMSO mass fraction m = 0.6, T = 318.2 K): 6.776
- Activity coefficient (γi) ([2]; DMSO mass fraction m = 0.7, T = 298.2 K): 1.609
- Activity coefficient (γi) ([2]; DMSO mass fraction m = 0.7, T = 303.2 K): 1.699
- Activity coefficient (γi) ([2]; DMSO mass fraction m = 0.7, T = 308.2 K): 1.853
- Activity coefficient (γi) ([2]; DMSO mass fraction m = 0.7, T = 313.2 K): 2.023
- Activity coefficient (γi) ([2]; DMSO mass fraction m = 0.7, T = 318.2 K): 2.267
- Activity coefficient (γi) ([2]; DMSO mass fraction m = 0.8, T = 298.2 K): 0.4851
- Activity coefficient (γi) ([2]; DMSO mass fraction m = 0.8, T = 303.2 K): 0.5430
- Activity coefficient (γi) ([2]; DMSO mass fraction m = 0.8, T = 308.2 K): 0.6120
- Activity coefficient (γi) ([2]; DMSO mass fraction m = 0.8, T = 313.2 K): 0.6808
- Activity coefficient (γi) ([2]; DMSO mass fraction m = 0.8, T = 318.2 K): 0.7771
- Activity coefficient (γi) ([2]; DMSO mass fraction m = 0.9, T = 298.2 K): 0.1392
- Activity coefficient (γi) ([2]; DMSO mass fraction m = 0.9, T = 303.2 K): 0.1658
- Activity coefficient (γi) ([2]; DMSO mass fraction m = 0.9, T = 308.2 K): 0.1932
- Activity coefficient (γi) ([2]; DMSO mass fraction m = 0.9, T = 313.2 K): 0.2245
- Activity coefficient (γi) ([2]; DMSO mass fraction m = 0.9, T = 318.2 K): 0.2572
- Activity coefficient (γi) ([2]; DMSO mass fraction m = 1.0, T = 298.2 K): 0.0455
- Activity coefficient (γi) ([2]; DMSO mass fraction m = 1.0, T = 303.2 K): 0.0547
- Activity coefficient (γi) ([2]; DMSO mass fraction m = 1.0, T = 308.2 K): 0.0646
- Activity coefficient (γi) ([2]; DMSO mass fraction m = 1.0, T = 313.2 K): 0.0771
- Activity coefficient (γi) ([2]; DMSO mass fraction m = 1.0, T = 318.2 K): 0.0894
SMILES: COc1cc2nccc(Oc3ccc(NC(=O)C4(C(=O)Nc5ccc(F)cc5)CC4)cc3)c2cc1OC [CBZM, Cabozantinib malate]
- Solubility in aqueous solutions [3]: nearly insoluble
- Total HSP (δt) [4]: 25.50 MPa^1/2
